In PubChem BioAssay (NCI):
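Assay format: 96-well plates, 48-hour exposure. The concentration for full growth arrest is given as TGI.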

What was measured:
Experiment in all cases: NCI anticancer screen, dose series, 48 h
ACHN renal = test system: ACHN renal
U251 CNS = test system: U251 CNS
NCI-H460 lung = test system: NCI-H460 lung
A498 renal = test system: A498 renal
UACC-257 melanoma = test system: UACC-257 melanoma
HOP-92 NSCLC = test system: HOP-92 NSCLC
OVCAR-8 ovarian = test system: OVCAR-8 ovarian
COLO 205 colon = test system: COLO 205 colon
MOLT-4 leukemia = test system: MOLT-4 leukemia
UACC-62 melanoma = test system: UACC-62 melanoma
K-562 leukemia = test system: K-562 leukemia
SN12C renal = test system: SN12C renal
EKVX NSCLC = test system: EKVX NSCLC
SK-MEL-5 melanoma = test system: SK-MEL-5 melanoma
OVCAR-5 ovarian = test system: OVCAR-5 ovarian
CAKI-1 renal = test system: CAKI-1 renal
CCRF-CEM leukemia = test system: CCRF-CEM leukemia
MDA-MB-231 breast = test system: MDA-MB-231 breast
MDA-MB-435 = test system: MDA-MB-435

| SMILES | TGI (ACHN renal) [µM] | TGI (U251 CNS) [µM] | TGI (NCI-H460 lung) [µM] | TGI (A498 renal) [µM] | TGI (UACC-257 melanoma) [µM] | TGI (HOP-92 NSCLC) [µM] | TGI (OVCAR-8 ovarian) [µM] | TGI (COLO 205 colon) [µM] | TGI (MOLT-4 leukemia) [µM] | TGI (UACC-62 melanoma) [µM] | TGI (K-562 leukemia) [µM] | TGI (SN12C renal) [µM] | TGI (EKVX NSCLC) [µM] | TGI (SK-MEL-5 melanoma) [µM] | TGI (OVCAR-5 ovarian) [µM] | TGI (CAKI-1 renal) [µM] | TGI (CCRF-CEM leukemia) [µM] | TGI (MDA-MB-231 breast) [µM] | TGI (MDA-MB-435) [µM] |
| --- | --- | --- | --- | --- | --- | --- | --- | --- | --- | --- | --- | --- | --- | --- | --- | --- | --- | --- | --- |
| C[n+]1c2ccccc2c(NC(CCC(N)=O)C(=O)O)c2ccccc21 (stereo not drawn) | > 100 | > 100 | > 100 | > 100 | > 100 | > 100 | > 100 | > 100 | > 100 | > 100 | > 100 | > 100 | > 100 | > 100 | > 100 | – | – | – | – |
| CC1=CCC2(C#N)CCC1C2=O (stereo not drawn) | > 100 | > 100 | > 100 | > 100 | > 100 | – | > 100 | > 100 | > 100 | > 100 | > 100 | > 100 | > 100 | > 100 | > 100 | > 100 | > 100 | – | – |
| Nc1nc(=O)n(C2OC(CO)C(O)C2O)cc1F (stereo not drawn) | – | > 100 | – | > 100 | > 100 | 5.9 | > 100 | > 100 | 0.268 | 5.3 | > 100 | > 100 | > 40.9 | > 100 | > 81.3 | > 100 | > 43.8 | – | – |
| COc1cc(OC)c(/C=N/N=C(\N)NO)c(OC)c1 | > 100 | > 100 | > 100 | > 100 | > 100 | > 100 | > 100 | > 100 | > 100 | > 100 | > 100 | > 100 | > 100 | > 100 | > 100 | > 100 | > 100 | > 100 | > 100 |
| Cc1ccc2c(c1)NC(=O)C(N=[N+]=[N-])(c1ccccc1)C2=O (stereo not drawn) | > 100 | 74.6 | > 100 | > 100 | 79.7 | 85.2 | 58.7 | 27.1 | 71.5 | 61.3 | 56.6 | 48.2 | 95.3 | 47.4 | > 100 | 78.1 | > 100 | – | – |
| COC(=O)c1ccccc1CC1Cc2cc3c(cc2C1)CCC3 | > 100 | > 100 | > 100 | > 100 | 73.1 | 71.2 | > 100 | 52.7 | 38.8 | – | 61.1 | > 100 | > 100 | 55.3 | > 100 | > 100 | 39.1 | > 100 | 84.2 |
| CC(=O)CN=C(C)NNc1ccc([N+](=O)[O-])cc1[N+](=O)[O-] | > 100 | > 100 | > 100 | > 100 | – | – | > 100 | > 100 | > 100 | > 100 | > 100 | > 100 | > 100 | > 100 | > 100 | > 100 | > 100 | > 100 | > 100 |
| CCN(CC)CC(C)(C)C(=O)/C=C/c1ccc(C)cc1 | 27.9 | 28.6 | 19.4 | 15.5 | – | 8.45 | 31.4 | – | 39.9 | 31.8 | > 100 | 19.8 | 16.9 | 29.1 | 27.6 | 29.1 | 19.2 | – | – |
| CCCCCCCCCCCCCCCCCC(=O)NCCCNCCCNC(=O)CCCCCCCCCCCCCCCCC | > 100 | > 100 | > 100 | > 100 | > 100 | > 100 | > 100 | > 100 | > 100 | > 100 | > 100 | > 100 | – | > 100 | > 100 | > 100 | > 100 | – | – |
| Cc1ccc(N2C(=O)/C(=c3\s/c(=C(/N)O)c(=N)n3-c3ccccc3)SC2=S)cc1 | > 100 | > 100 | > 100 | > 100 | > 100 | 47.1 | > 100 | > 100 | > 100 | > 100 | > 100 | – | – | > 100 | > 100 | – | > 100 | – | – |
| Nc1ncnc2c1ncn2CC(OCP(=O)(O)O)Oc1ccccc1 (stereo not drawn) | > 100 | > 100 | – | > 100 | > 100 | > 100 | – | > 100 | – | > 100 | > 100 | > 100 | > 100 | > 100 | > 100 | > 100 | > 100 | > 100 | > 100 |
